From patent publication US20250332300A1 (priority 2024, published 2025)
Where a name gives a salt, the structure may show the parent alone. Read-outs that look alike come from different tables or passages of the source. Starred links: 1 amine or outer side, 2 acyl side, 3 side chain; linkers in the order of their positions; H or OH if unused. Positions of bridges follow the written chain, without caps; N, C: chain ends. Non-standard residues stand in square brackets, D forms with d. Residues, ends and D or L forms follow the SMILES beside them. Trp(5-OH) = N[C@@H](Cc1c[nH]c2ccc(O)cc12)C(=O)O; NMePhe(4-F) = CN[C@@H](Cc1ccc(F)cc1)C(=O)O; NMehPhe = CN[C@@H](CCc1ccccc1)C(=O)O; Glutaryl = O=C(CCCC(=O)[*:2])[*:1]; Aad = N[C@@H](CCCC(=O)O)C(=O)O; Gly(cPr) = N[C@H](C(=O)O)C1CC1; NMeK = CN[C@@H](CCCCN)C(=O)O; NMeDap = CN[C@@H](CN)C(=O)O; NMeC = CN[C@@H](CS)C(=O)O; NMeS = CN[C@@H](CO)C(=O)O

Assays:
Assay type in all cases: binding
human HER2 (23-652) [1] = biological target: T1, human HER2 (23-652) (Homo sapiens, UniProt P04626); test: Surface plasmon resonance (SPR) for assessment of peptide affinity, human HER2; parameters: towards human HER2 (23-652) and mouse HER2 (23-653); made in house
How it was run: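 Binding kinetics fitted from sensorgrams with 280 s peptide association then 3000 s dissociation (30 uL/min), using HER2 (23-652) either directly immobilized (SA/CM5) or anti-Fc-captured; 3 M magnesium chloride used for regeneration.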

mouse HER2 (23-653) [2] = biological target: T2, mouse HER2 (23-653) (Mus musculus, UniProt P70424); test: Surface plasmon resonance (SPR) for assessment of peptide affinity, mouse HER2; parameters: mouse HER2 (23-653) using a Cy5 labeled peptide as a probe; made in house; conditions: SPR, mouse HER2 extracellular domain, 25° C., 1:1 binding model; read-out: moHER2-SPR-ONC KD
Description: Each protein was immobilized either onto a SA sensorchip (Cytiva, BR-1005-31) or CM5 sensorchip (Cytiva, BR-1005-30) to a density of 800-2000 RU.

human HER2 (23-652) [3] = biological target: T1, human HER2 (23-652); test: TR-FRET competition assay for peptide potency, human HER2; parameters: towards human HER2 (23-652) and mouse HER2 (23-653); made in house; host or cells: mammalian cells
mouse HER2 (23-653) [4] = biological target: T2, mouse HER2 (23-653); test: TR-FRET competition assay for peptide potency, mouse HER2; parameters: mouse HER2 (23-653) using a Cy5 labeled peptide as a probe; made in house; host or cells: mammalian cells; conditions: TR-FRET competition with Cy5 labeled peptide probe, 0.1 nM mouse HER2, 24 h incubation; read-out: moHER2 TR-FRET IC50
[5] = SPR, human HER2 extracellular domain, 25° C., 1:1 binding model, read-out: huHER2-SPR-ONC KD
[6] = TR-FRET competition with Cy5 labeled peptide probe, 0.1 nM human HER2, 24 h incubation, read-out: huHER2 TR-FRET IC50

| Compound | Kd (human HER2 (23-652) [1]) [nM] | Kd (mouse HER2 (23-653) [2]) [nM] | IC50 (human HER2 (23-652) [3]; huHER2 TR-FRET IC50, TR-FRET competition with Cy5 labeled peptide probe, 0.1 nM human HER2, 24 h incubation) [nM] | IC50 (mouse HER2 (23-653) [4]) [nM] | Kd (human HER2 (23-652) [1]; [5]) [nM] | IC50 (human HER2 (23-652) [3]; read-out: huHER2 TR-FRET IC50) [nM] | IC50 (human HER2 (23-652) [3]; [6]) [nM] |
| --- | --- | --- | --- | --- | --- | --- | --- |
| CN1C(=O)[C@H](CO)NC(=O)[C@H](Cc2ccc(O)cc2)NC(=O)[C@@H](N)CSSC[C@@H](C(=O)N(C)[C@@H](Cc2ccc(F)cc2)C(N)=O)N(C)C(=O)[C@H](C2CC2)NC(=O)[C@H](Cc2c[nH]c3ccccc23)NC(=O)[C@H](Cc2c[nH]c3ccc(O)cc23)NC(=O)[C@H](CO)N(C)C(=O)[C@@H]1CCc1ccccc1 [Example A54, (4R,7S,10S,13S,16S,19S,22S,25S,28R)-10-((1H-indol-3-yl)methyl)-28-amino-N—((S)-1-amino-3-(4-fluorophenyl)-1-oxopropan-2-yl)-7-cyclopropyl-13-((5-hydroxy-1H-indol-3-yl)methyl)-25-(4-hydroxybenzyl)-16,22-bis(hydroxymethyl)-N,5,17,20-tetramethyl-6,9,12,15,18,21,24,27-octaoxo-19-phenethyl-1,2-dithia-5,8,11,14,17,20,23,26-octaazacyclononacosane-4-carboxamide TFA salt] (H-CYS[NMehPhe][NMeS][Trp(5-OH)]W[Gly(cPr)][NMeC][NMePhe(4-F)]-NH2; disulfide 1-9) | 1710 | 5310 | > 1000 | > 1000 | – | – | – |
| CC(=O)NCCCC[C@H]1C(=O)N[C@@H](Cc2c[nH]c3ccc(O)cc23)C(=O)N[C@@H](C)C(=O)N[C@@H](C2CC2)C(=O)N(C)[C@H](C(=O)N(C)[C@@H](Cc2ccc(F)cc2)C(=O)N[C@@H](CCCCN)C(N)=O)CNC(=O)CCC[C@H](NC(C)=O)C(=O)N[C@@H](Cc2ccc(O)cc2)C(=O)N[C@@H](CO)C(=O)N(C)[C@@H](CCc2ccccc2)C(=O)N1C [Example A45, (3S,6S,9S,12S,15S,18S,21S,24S,27S)-27-acetamido-15-(4-acetamidobutyl)-6-cyclopropyl-N-((S)-1-(((S)-1,6-diamino-1-oxohexan-2-y1)amino)-3-(4-fluorophenyl)-1-oxopropan-2-y1)-12-((5-hydroxy-1H-indol-3-yl)methyl)-24-(4-hydroxybenzyl)-21-(hydroxymethyl)-N,4,9,16,19-pentamethyl-5,8,11,14,17,20,23,26,31-nonaoxo-18-phenethyl-1,4,7,10,13,16,19,22,25-nonaazacyclohentriacontane-3-carboxamide TFA salt] (Ac-[Aad]YS[NMehPhe][NMeK](Ac)[Trp(5-OH)]A[Gly(cPr)][NMeDap][NMePhe(4-F)]K-NH2; lactam 1-9) | – | > 6000 | – | > 1000 | > 6000 | > 900 | – |
| CC(=O)N[C@H]1CCCC(=O)NC[C@@H](C(=O)N(C)[C@@H](Cc2ccc(F)cc2)C(=O)N[C@@H](CCCCNC(=O)CN2CCN(CC(=O)O)CCN(CC(=O)O)CCN(CC(=O)O)CC2)C(N)=O)N(C)C(=O)[C@H](C2CC2)NC(=O)[C@H](Cc2c[nH]c3ccccc23)NC(=O)[C@H](Cc2c[nH]c3ccc(O)cc23)NC(=O)[C@H](CCCCNC(=O)CO)N(C)C(=O)[C@H](CCc2ccccc2)N(C)C(=O)[C@H](CO)NC(=O)[C@H](Cc2ccc(O)cc2)NC1=O [Example B5] | – | 0.1 | – | 0.2 | < 0.1 | < 0.1 | – |
| CC(=O)NCCCC[C@H]1C(=O)N[C@@H](Cc2c[nH]c3ccc(O)cc23)C(=O)N[C@@H](Cc2c[nH]c3ccccc23)C(=O)N[C@@H](C2CC2)C(=O)N(C)[C@H](C(=O)N(C)[C@@H](Cc2ccc(F)cc2)C(=O)N[C@@H](CCCCNC(=O)CN2CCN(CC(=O)O)CCN(CC(=O)O)CCN(CC(=O)O)CC2)C(N)=O)CNC(=O)CCC[C@H](NC(=O)CO)C(=O)N[C@@H](Cc2ccc(O)cc2)C(=O)N[C@@H](CO)C(=O)N(C)[C@@H](CCc2ccccc2)C(=O)N1C [Example C15] | – | < 0.1 | – | 0.2 | < 0.1 | – | < 0.1 |
| CC(=O)N[C@H]1CCC(=O)NCC[C@@H](C(=O)N(C)[C@@H](Cc2ccc(F)cc2)C(N)=O)N(C)C(=O)[C@H](C2CC2)NC(=O)[C@H](Cc2c[nH]c3ccccc23)NC(=O)[C@H](Cc2c[nH]c3ccc(O)cc23)NC(=O)[C@H](CO)N(C)C(=O)[C@H](CCc2ccccc2)N(C)C(=O)[C@H](CO)NC(=O)[C@H](Cc2ccc(O)cc2)NC1=O [Example A10, (2S,5S,8S,11S,14S,17S,20S,23S,30S)-17-((1H-indol-3-yl)methyl)-30-acetamido-N-((S)-1-amino-3-(4-fluorophenyl)-1-oxopropan-2-yl)-20-cyclopropyl-14-((5-hydroxy-1H-indol-3-yl)methyl)-2-(4-hydroxybenzyl)-5,11-bis(hydroxymethyl)-N,7,10,22-tetramethyl-3,6,9,12,15,18,21,27,31-nonaoxo-8-phenethyl-1,4,7,10,13,16,19,22,26-nonaazacyclohentriacontane-23-carboxamide] | – | 520 | – | 684 | 482 | 536 | – |
| CC(=O)NCCCC[C@H]1C(=O)N[C@@H](Cc2c[nH]c3ccc(O)cc23)C(=O)N[C@@H](Cc2c[nH]c3ccccc23)C(=O)N[C@@H](C2CC2)C(=O)N(C)[C@H](C(=O)N(C)[C@@H](Cc2ccc(F)cc2)C(=O)N[C@@H](CCCCNC(=O)CN2CCN(CC(=O)O)CCN(CC(=O)O)CCN(CC(=O)O)CC2)C(N)=O)CNC(=O)CCC[C@H](NC(=O)CCC(=O)O)C(=O)N[C@@H](Cc2ccc(O)cc2)C(=O)N[C@@H](CO)C(=O)N(C)[C@@H](CCc2ccccc2)C(=O)N1C [Example C11] | – | < 0.1 | – | 0.1 | < 0.1 | – | < 0.1 |
| CC(=O)NCCCC[C@H]1C(=O)N[C@@H](Cc2c[nH]c3ccc(O)cc23)C(=O)N[C@@H](Cc2c[nH]c3ccccc23)C(=O)N[C@@H](C2CC2)C(=O)N(C)[C@H](C(=O)N(C)[C@@H](Cc2ccc(F)cc2)C(N)=O)CNC(=O)CCCC(=O)N[C@@H](Cc2ccc(O)cc2)C(=O)N[C@@H](CO)C(=O)N(C)[C@@H](CCc2ccccc2)C(=O)N1C [Example A7, (3S,6S,9S,12S,15S,18S,21S,24S)-9-((1H-indol-3-yl)methyl)-15-(4-acetamidobutyl)-N-((S)-1-amino-3-(4-fluorophenyl)-1-oxopropan-2-yl)-6-cyclopropyl-12-((5-hydroxy-1H-indol-3-yl)methyl)-24-(4-hydroxybenzyl)-21-(hydroxymethyl)-N,4,16,19-tetramethyl-5,8,11,14,17,20,23,26,30-nonaoxo-18-phenethyl-1,4,7,10,13,16,19,22,25-nonaazacyclotriacontane-3-carboxamide] (YS[NMehPhe][NMeK](Ac)[Trp(5-OH)]W[Gly(cPr)][NMeDap][NMePhe(4-F)]-NH2; linker N-8 via Glutaryl) | – | 23 | – | 40 | 18 | 18 | – |
